Assay results from publication PMC10254649, “Design, Synthesis, and Biological Evaluation of Potent and Selective Inhibitors of Ataxia Telangiectasia Mutated and Rad3-Related (ATR) Kinase for the Efficient Treatment of Cancer” (Molecules, 2023).
Several values for one entry are separate records, joined by “and”; a condition that tells them apart may be missing. Equal entries are not always repeated. Where two headings read alike, the source gives them in different places.

Assays:
LoVo cells [1] = assay: Annexin V-FITC/PI apoptosis assay by flow cytometry; type: cell-based, human; conditions: 1 μM
Method: The percentage of apoptotic cells was determined by the Annexin V-FITC/PI double staining kit (KeyGEN Biotech, Nanjing, China). According to the manufacturer’s instructions, LoVo cells were stained with Annexin V-FITC and PI. The signal of the FITC and PI was recorded by BD FACSCelesta Flow Cytometer (BD FACSCelesta, Becton, Dickinson and Company) and the FlowJo software.

A549 cells = assay: CCK-8 cell proliferation assay, A549; type: cell-based; conditions: Homo sapiens, CCK-8, 72 h, ATM-normal cell line, three independent experiments, read-out: IC50 ± SD, A549
Method: (§1) A549, HCT116, NCI-H23, and LoVo cells were purchased from the Cell Resources Center of Shanghai Academy of Life Sciences, Shanghai, China. A549 cells were cultured in McCoy’s5A medium supplemented with 10% FBS (KeyGEN Biotech, Nanjing, China) and 1% penicillin/streptomycin (Gibco, 15070-063). HCT116 cells were cultured in IMDM medium supplemented with 10% FBS (KeyGEN Biotech, Nanjing, China) and 1% penicillin/streptomycin (Gibco, 15070-063). NCI-H23 cells were cultured in RPMI 1640 medium supplemented with 10% FBS (KeyGEN Biotech, Nanjing, China) and 1% penicillin/streptomycin (Gibco, 15070-063). LoVo cells were cultured in F12K medium supplemented with 10% FBS (KeyGEN Biotech, Nanjing, China) and 1% penicillin/streptomycin (Gibco, 15070-063). All cells were cultured in an incubator at 37 °C under a 5% CO2 atmosphere.
(§2) For the assay, 3000/well cells were planted into 96-well plates for 24 h and then treated with the indicated doses of drugs or controls for 72 h. Following the manufacturer’s instructions, cell proliferation/survival was measured using the CCK-8 (KeyGEN Biotech, Nanjing, China) assay and plotted via GraphPad 8.0.

LoVo cells [2] = assay: CCK-8 cell proliferation assay, LoVo; type: cell-based; conditions: Homo sapiens, CCK-8, 72 h, ATM-deficient cell line, three independent experiments, read-out: IC50 ± SD, LoVo
Method: as §1, §2

207 kinases = assay: Kinase panel selectivity screen at 1 μM; type: biochemical, human; conditions: single concentration of 1 μM, duplicate
LoVo cells [3] = assay: Colony formation assay; type: cell-based, human; conditions: 14 days
Source text: LoVo cells at a concentration of 800 cells/well were exposed to various concentrations of ZH-12 for 14 days. After 14 days of treatment, the colonies were fixed with 4% paraformaldehyde, stained with 0.1% crystal violet, and imaged using an upright biological microscope (Olympus BX53, Tokyo, Japan). The experiments were repeated at least three times and plotted via GraphPad 8.0.

LoVo cells [4] = assay: Wound healing migration assay; type: cell-based, human; conditions: 48 h
Method: LoVo cells in the logarithmic phase were collected and seeded in 6-well plates and cultured overnight. A straight line was drawn across the cell with a sterile pipette tip. A culture medium containing different concentrations of ZH-12 or 0.1% DMSO (10% FBS) was added. Scratch widths were recorded under an inverted microscope (Olympus, Waltham, MA, USA) at 0 h and 48 h.

[5] = tested on: p-ATR(Thr1989) and p-CHK1(Ser345); assay: Western blot of ATR/CHK1 signaling in LoVo xenograft tumors; type: in vivo, Balb/c nude mice; conditions: LoVo xenograft tumors, 50, 25 and 12.5 mg/kg
Method: LoVo cells with a density of 1 × 10^6 were inoculated in a small cell culture dish at a single density for 24 h and then treated with the specified concentration of 5% dimethyl sulfoxide or compound at different times. The cells were washed with cold PBS and lysed with RIPA buffer (Beyotime, Shanghai, China) containing protease inhibitors (Beyotime, Shanghai, China) and phosphatase inhibitors (Beyotime, Shanghai, China). After lysis of the total cell solution on ice for 60 min, the lysate was centrifuged (12,000 rpm, 4 °C, 20 min); The total protein concentrations obtained were determined using the BCA kit (Beyotime, Shanghai, China). A proper 6 × loading buffer was added before use, and the samples were denatured by boiling. Then, 30–100 μg of protein was loaded onto a 4–12% SDS-PAGE gel and then transferred to the PVDF membrane (Millipore). […] The software ImageJ was used to quantify the percentage degradation of proteins. […]
Balb/c nude mice (18–22 g, female, 4 weeks old) were purchased from Hangzhou Medical College (Hangzhou, China). […] Tumor size and animal weight were measured every 3 days. Tumor volume was calculated as tumor volume (cm^3) = (length × width^2)/2. […] The results were obtained from 5 test mice (mean ± SD) and calculated using GraphPad 8.0 software.

[6] = tested on: p-ATR(Thr1989) and p-CHK1(Ser345); assay: Western blot of ATR/CHK1 signaling in HU-treated LoVo cells; type: cell-based, human; conditions: LoVo cells treated with HU (hydroxyurea)
Method: LoVo cells with a density of 1 × 10^6 were inoculated in a small cell culture dish at a single density for 24 h and then treated with the specified concentration of 5% dimethyl sulfoxide or compound at different times. The cells were washed with cold PBS and lysed with RIPA buffer (Beyotime, Shanghai, China) containing protease inhibitors (Beyotime, Shanghai, China) and phosphatase inhibitors (Beyotime, Shanghai, China). After lysis of the total cell solution on ice for 60 min, the lysate was centrifuged (12,000 rpm, 4 °C, 20 min); The total protein concentrations obtained were determined using the BCA kit (Beyotime, Shanghai, China). A proper 6 × loading buffer was added before use, and the samples were denatured by boiling. Then, 30–100 μg of protein was loaded onto a 4–12% SDS-PAGE gel and then transferred to the PVDF membrane (Millipore). The membrane was occluded for 1 h, incubated overnight with primary antibody at 4 °C, followed by washing 3 times with Tris-buffered saline and Tween 20 (TBST) for 10 min. After incubation with a second antibody with horseradish peroxidase for 60 min at room temperature, the membrane was washed 3 times for 10 min with TBST. Finally, blotting was performed with an enhanced chemiluminescence assay kit (KeyGEN Biotech, Nanjing, China). The software ImageJ was used to quantify the percentage degradation of proteins. […]

LoVo xenografts = assay: LoVo tumor xenograft mouse model, antitumor efficacy and tolerability; type: in vivo; conditions: for tumor growth inhibition (TGI): days 1-18, single agent
Method: Balb/c nude mice (18–22 g, female, 4 weeks old) were purchased from Hangzhou Medical College (Hangzhou, China). All mice were inoculated subcutaneously in the right flank with 5 × 10^6 LoVo cells to initiate tumor growth. When the mean tumor volume reached approximately 100 mm^3, all mice were randomly divided into 8 groups (n = 5 per group) based on body weight and volume. […] Cisplatin was administered twice a week at the indicated doses. Tumor size and animal weight were measured every 3 days. Tumor volume was calculated as tumor volume (cm^3) = (length × width^2)/2. Tumor inhibition rate (%) = (1 − mean tumor weight in the treatment group/mean tumor weight in the control group) × 100%. The results were obtained from 5 test mice (mean ± SD) and calculated using GraphPad 8.0 software.

NCI-H23 cells = assay: CCK-8 cell proliferation assay, NCI-H23; type: cell-based; conditions: Homo sapiens, CCK-8, 72 h, ATM-deficient cell line, three independent experiments, read-out: IC50 ± SD, NCI-H23
Method: as §1, §2

ATR = ATR (Homo sapiens, UniProt Q13535); assay: In vitro inhibitory activity against the ATR enzyme; type: biochemical
LoVo cells [7] = assay: Comet assay for DNA damage; type: cell-based, human; conditions: 72 h
Method: The comet assay was performed following the protocol of the manufacturer of the Comet Assay Kit (KeyGEN Biotech, Nanjing, China). […] After 3 days of treatment, the cells (1 × 10^4/mL) were collected, mixed with low-melting agarose at a ratio of 1:10 (v/v), layered on slides, lysed in lysis buffer at 4 °C for 2 h, and then lysed in alkaline lysis solution at room temperature for 30 min. Following electrophoresis, the cells were stained with PI and observed with an […] biomicroscope (Olympus BX53, Tokyo, Japan). Three images were randomly captured per slide.

HCT116 cells = assay: CCK-8 cell proliferation assay, HCT116; type: cell-based; conditions: Homo sapiens, HCT-116; CCK-8, 72 h, ATM-normal cell line, three independent experiments; read-out: IC50 ± SD, HCT116
Method: as §1, §2

ATR, sequence (Q13535 whole entry): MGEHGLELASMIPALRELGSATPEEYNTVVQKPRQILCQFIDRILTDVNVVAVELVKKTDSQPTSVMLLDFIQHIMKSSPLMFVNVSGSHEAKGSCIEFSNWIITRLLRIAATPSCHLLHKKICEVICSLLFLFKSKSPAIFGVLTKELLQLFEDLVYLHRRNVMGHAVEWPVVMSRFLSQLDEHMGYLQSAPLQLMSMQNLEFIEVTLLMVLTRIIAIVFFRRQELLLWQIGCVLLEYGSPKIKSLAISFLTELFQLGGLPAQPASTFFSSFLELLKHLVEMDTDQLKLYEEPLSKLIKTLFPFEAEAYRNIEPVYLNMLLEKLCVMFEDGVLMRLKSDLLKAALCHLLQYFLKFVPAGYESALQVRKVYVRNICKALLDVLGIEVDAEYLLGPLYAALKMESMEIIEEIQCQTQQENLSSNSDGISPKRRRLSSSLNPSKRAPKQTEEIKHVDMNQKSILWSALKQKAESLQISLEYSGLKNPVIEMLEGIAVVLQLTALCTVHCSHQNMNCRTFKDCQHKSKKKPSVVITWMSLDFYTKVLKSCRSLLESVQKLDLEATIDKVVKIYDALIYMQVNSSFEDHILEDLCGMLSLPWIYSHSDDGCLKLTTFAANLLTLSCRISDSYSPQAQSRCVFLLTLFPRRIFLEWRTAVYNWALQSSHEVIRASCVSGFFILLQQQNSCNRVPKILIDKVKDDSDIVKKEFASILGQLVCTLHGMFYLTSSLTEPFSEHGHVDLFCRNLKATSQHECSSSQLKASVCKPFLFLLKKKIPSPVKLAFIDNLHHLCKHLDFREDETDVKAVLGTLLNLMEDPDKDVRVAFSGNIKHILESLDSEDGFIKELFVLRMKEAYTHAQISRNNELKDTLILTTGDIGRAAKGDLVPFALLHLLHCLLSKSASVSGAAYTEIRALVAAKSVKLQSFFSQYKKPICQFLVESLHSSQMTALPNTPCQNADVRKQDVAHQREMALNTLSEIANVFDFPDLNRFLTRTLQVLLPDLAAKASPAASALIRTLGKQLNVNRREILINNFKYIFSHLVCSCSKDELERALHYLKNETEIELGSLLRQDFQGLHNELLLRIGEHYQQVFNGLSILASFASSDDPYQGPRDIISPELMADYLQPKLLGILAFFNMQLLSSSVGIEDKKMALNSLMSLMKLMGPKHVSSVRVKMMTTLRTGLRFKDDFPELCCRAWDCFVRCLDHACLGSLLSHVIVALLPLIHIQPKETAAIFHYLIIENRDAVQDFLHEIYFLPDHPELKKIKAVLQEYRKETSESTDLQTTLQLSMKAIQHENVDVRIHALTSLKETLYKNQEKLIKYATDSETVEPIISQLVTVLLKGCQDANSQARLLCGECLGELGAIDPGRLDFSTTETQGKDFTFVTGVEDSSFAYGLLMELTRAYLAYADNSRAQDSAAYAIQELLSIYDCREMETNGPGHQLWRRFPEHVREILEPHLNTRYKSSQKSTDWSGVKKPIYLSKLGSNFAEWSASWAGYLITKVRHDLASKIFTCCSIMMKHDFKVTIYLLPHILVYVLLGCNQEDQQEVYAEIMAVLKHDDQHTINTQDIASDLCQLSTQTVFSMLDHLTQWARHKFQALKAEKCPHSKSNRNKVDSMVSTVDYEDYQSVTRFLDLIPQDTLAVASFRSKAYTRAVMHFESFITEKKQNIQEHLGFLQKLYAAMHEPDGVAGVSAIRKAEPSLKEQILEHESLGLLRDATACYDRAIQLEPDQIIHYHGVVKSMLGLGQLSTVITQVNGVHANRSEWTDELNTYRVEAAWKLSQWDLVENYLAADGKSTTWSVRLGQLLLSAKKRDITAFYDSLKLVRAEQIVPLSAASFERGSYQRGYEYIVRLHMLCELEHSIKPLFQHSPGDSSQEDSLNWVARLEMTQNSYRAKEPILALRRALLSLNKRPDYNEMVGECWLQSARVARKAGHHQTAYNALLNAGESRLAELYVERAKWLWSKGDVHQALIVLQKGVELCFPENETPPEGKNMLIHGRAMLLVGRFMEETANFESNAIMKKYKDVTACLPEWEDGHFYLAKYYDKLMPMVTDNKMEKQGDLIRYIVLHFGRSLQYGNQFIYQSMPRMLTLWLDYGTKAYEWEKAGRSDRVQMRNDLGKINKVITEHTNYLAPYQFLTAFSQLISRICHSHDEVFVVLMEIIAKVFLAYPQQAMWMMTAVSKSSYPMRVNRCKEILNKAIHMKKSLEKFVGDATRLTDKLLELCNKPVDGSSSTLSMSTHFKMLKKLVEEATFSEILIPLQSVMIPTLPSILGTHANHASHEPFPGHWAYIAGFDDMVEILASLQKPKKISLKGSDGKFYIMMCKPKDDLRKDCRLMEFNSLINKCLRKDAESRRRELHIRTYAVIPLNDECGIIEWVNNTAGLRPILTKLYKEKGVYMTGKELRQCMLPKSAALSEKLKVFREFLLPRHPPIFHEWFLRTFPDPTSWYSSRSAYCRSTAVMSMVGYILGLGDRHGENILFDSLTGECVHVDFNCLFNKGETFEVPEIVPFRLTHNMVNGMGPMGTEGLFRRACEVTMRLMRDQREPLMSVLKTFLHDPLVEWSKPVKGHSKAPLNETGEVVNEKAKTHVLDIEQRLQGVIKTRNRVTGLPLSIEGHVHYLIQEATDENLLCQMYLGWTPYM
ATR, sequence (Q8WXE1 whole entry partner): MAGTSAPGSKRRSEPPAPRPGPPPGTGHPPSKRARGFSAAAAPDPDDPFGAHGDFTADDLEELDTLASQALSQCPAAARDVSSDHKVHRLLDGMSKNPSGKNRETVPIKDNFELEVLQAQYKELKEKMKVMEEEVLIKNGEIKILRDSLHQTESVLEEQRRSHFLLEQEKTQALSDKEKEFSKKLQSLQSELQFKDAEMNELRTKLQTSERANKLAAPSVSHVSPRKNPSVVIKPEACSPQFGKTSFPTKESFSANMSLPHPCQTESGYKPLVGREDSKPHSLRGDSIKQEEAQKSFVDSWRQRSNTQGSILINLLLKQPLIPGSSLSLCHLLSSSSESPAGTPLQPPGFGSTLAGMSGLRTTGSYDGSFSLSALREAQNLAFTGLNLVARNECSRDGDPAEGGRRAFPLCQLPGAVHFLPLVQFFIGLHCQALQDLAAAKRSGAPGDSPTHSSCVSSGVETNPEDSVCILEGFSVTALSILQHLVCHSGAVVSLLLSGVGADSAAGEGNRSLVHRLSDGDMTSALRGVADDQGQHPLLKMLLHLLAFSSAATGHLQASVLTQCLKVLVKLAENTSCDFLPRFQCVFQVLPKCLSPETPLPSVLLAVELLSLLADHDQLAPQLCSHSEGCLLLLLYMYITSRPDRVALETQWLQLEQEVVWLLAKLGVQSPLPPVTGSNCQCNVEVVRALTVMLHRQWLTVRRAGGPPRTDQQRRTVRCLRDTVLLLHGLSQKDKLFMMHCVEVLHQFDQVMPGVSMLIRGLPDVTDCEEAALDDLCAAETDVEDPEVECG

## C[C@@H]1COCCN1c1nc(-c2cccc3[nH]ccc23)nc2c1CCN(C(=O)CC#N)C2 [ZH-12, (R)-3-(2-(1H-indol-4-yl)-4-(3-methylmorpholino)-5,8-dihydropyrido[3,4-d]pyrimidin-7(6H)-yl)-3-oxopropanenitrile]
LoVo cells [1]
  apoptosis effect (percentage of apoptotic cells): 33.8%
A549 cells
  IC50: 4.74 ± 0.27 µM
LoVo cells [2]
  IC50: 0.29 ± 0.01 µM
207 kinases
  inhibitory activities against 207 kinases: weak or no inhibitory activities against 207 kinases
LoVo cells [3]
  colony formation (cell proliferation): inhibited cell proliferation dose-dependently
LoVo cells [4]
  cell migration, wound healing: inhibited LoVo cell migration in a dose-dependent manner
[5]
  ATR phosphorylation (p-ATR Thr1989) and CHK1 phosphorylation (p-CHK1 Ser345) in tumors: significantly inhibited ATR phosphorylation
[6]
  phosphorylation of ATR and CHK1, Western blot: inhibited the phosphorylation of ATR and its downstream kinase CHK1 in a dose-dependent manner
LoVo xenografts; 12.5 mg/kg, intraperitoneally, twice daily
  tumor growth inhibition (TGI): 27.0%
LoVo xenografts; 25 mg/kg twice daily, AZD6738 orally, ZH-12 intraperitoneally
  tumor growth inhibition (TGI): 39.5%
LoVo xenografts; 50 mg/kg, intraperitoneally, twice daily
  tumor growth inhibition (TGI): 53.7% and 53.8%
LoVo xenografts; ZH-12 12.5, 25 and 50 mg/kg BID for 18 days, single agent
  body weight loss or toxicity: No significant body weight loss or toxicity was observed
NCI-H23 cells
  IC50: 0.77 ± 0.13 µM
ATR; mean ± SD of two independent experiments, read-out: ATR IC50 ± SD
  IC50: 0.00681 ± 4e-05 µM
ATR; read-out: ATR IC50
  IC50: 0.0068 µM
LoVo cells [7]
  DNA damage, comet assay: induced significant amounts of DNA damage dose-dependently
LoVo cells [7]; 0.5 µM
  tail intensity, comet assay: comparable tail intensity to AZD6738
HCT116 cells
  IC50: 1.61 ± 0.08 µM
